Patent US8338414B2, “Immunosuppressive agent and anti-tumor agent comprising heterocyclic compound as active ingredient” (Zenyaku Kogyo KabushikiKaisha, priority 2005, dated 2012)
Where two headings read alike, the source gives them in different places.

Columns and labels:
mouse spleen cells = assay: Proliferation inhibition assay for mouse spleen cells; assay type: cell-based; conditions: 72 h, 3 days, Alamar Blue
Method in brief: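 C57BL/6N female mouse spleen cells (2×10^6 cells/mL) stimulated with Con A (3 μg/mL), LPS (100 μg/mL) or anti-mouse IgM (100 μg/mL) alongside serially diluted compounds, 3 days at 37° C, 5% CO2. Alamar Blue added for a further day; fluorescence read at ex 530/em 590 nm.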

[1] = Toxicologic test for single oral administration; conditions: rat, in vivo, po, 1200 mg/kg
Daudi cells [2] = assay: Therapeutic action on human B lymphoma xenografted model; assay type: in vivo, mouse; conditions: NOD/SCID mice, Daudi subcutaneous, 400 mg/kg oral after day 20
Experimental: Daudi cells (1×10^7 cells/mL) cultured in RPMI 1640 medium (containing 10% fetal bovine serum, 10 mM HEPES, 1 mM pyruvic acid, 4.5 g/L glucose, 100 units/mL penicillin, and 0.1 mg/mL streptomycin) were implanted subcutaneously in the chests of 8 week-old NOD/SCID mice. After day 20 when the tumor had grown to the volume of about 800 mm^3, Compound 4 (400 mg/kg) was administered orally.

THP-1 cells = assay: Proliferation inhibitory activity on hematologic neoplasm cells, THP-1; assay type: cell-based; conditions: Homo sapiens, THP-1, 72 h; 3 days, Alamar Blue
[3] = test system: Rabbit synoviocytes HIG-82; assay: Inhibition assay for proliferation of rabbit synoviocyte; assay type: cell-based; conditions: Oryctolagus cuniculus, 72 h; HIG-82, 3 days, Alamar Blue
[4] = test system: human peripheral blood mononuclear cells; assay: Proliferation inhibition assay for human peripheral blood mononuclear cells; assay type: cell-based; conditions: Homo sapiens, 72 h; PBMC, anti-CD3 and anti-CD28 antibody, 3 days, Alamar Blue
Method in brief: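 PBMC from healthy donors (1×10^5 cells/mL) in RPMI 1640 with 10% FBS were stimulated with plate-bound anti-CD3 plus anti-CD28 (1 μg/mL). Serially diluted compounds were added and cells were cultured 3 days at 37 °C. Alamar Blue was then added for 1 day and fluorescence was read at ex 530/em 590 nm.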

[5] = test system: human peripheral blood mononuclear cells; assay: Activation inhibition assay for human peripheral blood mononuclear cells (CD40L, CD69 expression); assay type: cell-based; conditions: PBMC, anti-CD3 + anti-CD28, 6 hours, flow cytometry
Experimental: In accordance with the method of Assay Example 2, PBMC (2×10^6 cells/mL) was isolated from human peripheral blood, suspended in RPMI 1640 medium (containing 10% fetal bovine serum, 10 mM HEPES, 1 mM pyruvic acid, and 4.5 g/L glucose), and seeded in wells of a 96 well plate at 0.225 mL per well. The test substances were added to respective wells, and then an anti-CD3 antibody (2 μg/mL) and an anti-CD28 antibody (1 μg/mL) were added. Then, after incubation under conditions of carbon dioxide 5% at a temperature 37° C. for 6 hours, the expressions of CD40L and CD69, activation markers, were analysed by flow cytometry. As a result, when the cells were stimulated by both an anti-CD3 antibody and an anti-CD28 antibody, CD40L was expressed on 14.4% of PBMC, which was also CD4 positive. However, the proportion of the cells which expressed CD40L decreased when the cells had been treated with test substances (Compound 4: 4.9%; Compound 20: 3.7%, Compound 24: 3.6%).

Jurkat cells = assay: Proliferation inhibitory activity on hematologic neoplasm cells, Jurkat; assay type: cell-based; conditions: Homo sapiens, Jurkat, 72 h; 3 days, Alamar Blue
fulminant hepatitis = assay: Fulminant hepatitis model (galactosamine and LPS); assay type: in vivo, mouse; conditions: BALB/c mice, galactosamine 800 mg/kg and LPS 110 μg/kg i.p.
Experimental: BALB/c male mice (7 weeks old, purchased from Charles River Laboratories Japan Inc.) were used in the experiment. After having orally administered the test substances suspended in 5% HPC, galactosamine (800 mg/kg) and LPS (110 μg/kg) were intraperitoneally administered. Then, survival rates at 72 hours after administration were obtained.

Daudi cells [6] = assay: Proliferation inhibitory activity on hematologic neoplasm cells, Daudi; assay type: cell-based; conditions: Homo sapiens, Daudi, 72 h; 3 days, Alamar Blue

FC(F)c1nc2ccccc2n1-c1nc(N2CCOCC2)nc(N2CCOCC2)n1 [Compound 4, 2-(2-Difluoromethylbenzimidazol-1-yl)-4,6-dimorpholino-1,3,5-triazine]
IC50 (mouse spleen cells; LPS 100 μg/mL, read-out: Inhibition of LPS response): 1 to 100 nM
IC50 (mouse spleen cells; anti-mouse IgM antibody 100 μg/mL, read-out: Inhibition of Anti-IgM antibody response): 1 to 100 nM
IC50 (mouse spleen cells; concanavalin A 3 μg/mL, read-out: Inhibition of Con A response): 1 to 100 nM
death after single oral dose [1]: no examples of death were recognized
increase in tumor volume (Daudi cells [2]): inhibited
IC50 (THP-1 cells): 511 nM
IC50 [3]: 953 nM
IC50 [4]: 312 nM
proportion of the cells which expressed CD40L ([5]; CD4 positive, 14.4% without test substance): 4.9%
proportion of CD4-positive cells which expressed CD69 ([5]; 28.8% without test substance): 18.8%
proportion of CD4-negative cells which expressed CD69 ([5]; 50.9% without test substance): 17.7%
IC50 (Jurkat cells): 1950 nM
Survival Rate after 72 Hours (fulminant hepatitis; 50 mg/kg oral): 60%
Survival Rate after 72 Hours (fulminant hepatitis; 100 mg/kg oral): 83%
IC50 (Daudi cells [6]): 105 nM
